Test results reported in the METLIN SMRT retention time set (Domingo-Almenara et al. 2019).

Test: gradient 5% acetonitrile 3 min, to 50% in 2 min, to 85% in 15 min, held 3 min, 100 µL/min
Conditions: column: Zorbax Extend-C18 2.1 x 50 mm; eluents: water / acetonitrile, 0.1% formic acid
Method in brief: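 Standards, all pure, were combined into mixtures of ~100 molecules and run at 100 μL/min on a Zorbax Extend-C18 column (2.1 × 50 mm, 1.8 μm) with water and acetonitrile, each containing 0.1% formic acid. A coupled quadrupole time-of-flight mass spectrometer operated in positive and negative ionization mode. Retention time values come from computationally picked adduct peaks, each inspected manually.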

RP-LC retention time [s] | SMILES
828 | O=C(c1c(F)cccc1Cl)N1CCN(S(=O)(=O)c2cc3c4c(c2)CCC(=O)N4CCC3)CC1
968 | Cc1sc(NC(=O)c2ccc(Cl)cc2)nc1-c1ccc2c(c1)NC(=O)C(C)O2 (stereo not drawn)
753 | COc1cccc(-c2nnc(NC(=O)C3CCCCC3)o2)c1
847 | Cc1c(OC(C)C(=O)O)ccc2c1oc(=O)c1ccccc12 (stereo not drawn)
1330 | Cc1ccc(-c2nc(-c3cccc(-c4ccnn4C)c3)no2)c(C)c1
1220 | O=c1cc(-c2ccncc2)nc(N2CCCC2)n1Cc1ccccc1F
889 | CSc1ccc(CNC(=O)CN2CCc3ccccc3C2C(=O)N2CCCCC2)cc1 (stereo not drawn)
802 | COc1ccc2sc(Nc3nnc(-c4ccc5c(c4)OCCO5)o3)nc2c1
700 | O=C(NCc1cccnc1-c1ccc(F)cc1)c1cc(F)ccc1Cl
641 | O=C(CN1CCN(Cc2ccccc2)C1=O)NC1CC1
764 | COc1ccc(NC(=O)N2CCC3(CC2)N=C(c2ccccc2)C(=O)N3)c(OC)c1
1210 | COC(=O)c1ccc(NC(=O)c2c(O)c3cccnc3n(-c3ccc(F)cc3)c2=O)cc1
808 | O=S(=O)(c1cccn2c(SCc3ccccc3)nnc12)N1CCCC1
631 | CC(C)c1ccc(NC(=O)C(=O)NCCCN2CCN(c3ccccc3)CC2)cc1
671 | CCc1cc(=O)n(CC(=O)Nc2ccc3c(c2)OCO3)c(N2CCOCC2)n1
887 | CN1C(=O)c2cc(S(=O)(=O)Nc3ccc(F)cc3F)ccc2Oc2cccnc21
936 | COc1ccc(NC(=O)CCc2nc(-c3ccc(N4CCCC4)cc3)no2)cc1OC
797 | COc1ncc(C(=O)NC(C)CCc2ccccc2)cn1 (stereo not drawn)
1100 | Cc1cccc(C)c1Nc1c(-c2ccc(N3CCOCC3)cc2)nc2cnc(Br)cn12
866 | CC1(C(=O)NCc2ccc(F)cc2)CN(S(C)(=O)=O)CC(=O)N1Cc1ccc(Cl)cc1 (stereo not drawn)
783 | O=C(CN1CCN(Cc2ccccc2F)C1=O)NCc1ccc(N2CCCC2)cc1
645 | CCOc1ccc(-c2ccc(=O)n(CCNC(=O)c3cn(C)nc3OC)n2)cc1

RP-LC retention time [s] | SMILES
675 | CCCNC(=O)C1CCN(c2ccc(SCC(=O)NCc3ccc(C(F)(F)F)cc3)nn2)CC1
803 | CCN1C(=O)C(C)(C(=O)NCc2ccc(OC)cc2)Oc2cccnc21 (stereo not drawn)
943 | COc1cccc(NC(=O)Cn2c(C)cc(-c3nnc(-c4ccc(F)cc4)o3)c2C)c1
788 | CCS(=O)(=O)NCc1cccnc1Oc1ccccc1
664 | O=C(NC1CC1)C1CCN(c2cnn(Cc3ccccc3)c(=O)c2)C1 (stereo not drawn)
897 | O=C(CSc1nnc(-c2ccco2)n1-n1cccc1)Nc1cccc(C(F)(F)F)c1
769 | Cc1c(Cc2ccccc2)sc(NC(=O)C2CCCCC2C(=O)O)c1C(N)=O (stereo not drawn)
1150 | COc1ccc(C2Cn3nnc(-c4nc(-c5ccccc5Br)no4)c3CO2)cc1 (stereo not drawn)
629 | Cc1sc2ccn(Cc3ccc(F)cc3)c(=O)c2c1C(=O)NCCCN1CCOCC1
827 | Cc1ccc(C)c(CN2C(=O)NC3(CCN(C(=O)c4ccsc4)CC3)C2=O)c1
904 | CCn1nc(C)n2cc(S(=O)(=O)NCc3ccc(Cl)cc3)cc2c1=O
578 | COc1ccc(NC(=O)Cn2ccnc2-c2ccnc(N3CCOCC3)c2)cc1OC
658 | CCNC(=O)C1CC(=O)N(c2cccc(C)c2)C1 (stereo not drawn)
784 | COc1cccc(C(=O)NCc2nnnn2C2CCCCC2)c1OC
570 | CCCNc1cc(N2CCC(CCC(=O)N(C)CCc3ccccn3)CC2)ncn1
649 | Cc1ccc(CNC(=O)C2CCN(c3cncnc3N3CCOCC3)CC2)cc1C
930 | CC(C)c1ccc(S(=O)(=O)N2C[C@@H](F)C[C@H]2C(=O)N2CCCCC2)cc1
1080 | COc1ccc(OC)c(NC(=O)Cc2cccn2-c2ccc(Cl)cc2)c1
747 | CN(C1CCc2nn(CC3CC3)c(=O)n2CC1)S(=O)(=O)Cc1ccccc1 (stereo not drawn)
1030 | O=C1N(c2ccc(F)cc2)c2ncccc2S(=O)(=O)N1Cc1cccc(F)c1
1140 | CC(C)Cc1csc(-c2csc(S(=O)(=O)NCc3ccccc3F)c2)n1
894 | O=C(Cn1ccn2nc(-c3ccc(F)cc3)c(CO)c2c1=O)Nc1cc(F)ccc1Cl

RP-LC retention time [s] | SMILES
819 | COc1cc(CSc2nc(CC(=O)Nc3nccs3)cs2)cc(OC)c1
570 | CC(C)c1cccc(NC(=O)Cn2ncc3c(N4CCN(c5ccccn5)CC4)ncnc32)c1
690 | O=S(=O)(c1ccccc1)N1CC(F)(F)C[C@H]1COc1cccnc1
593 | CN(C)C(=O)c1ccc2c(c1)N(CC(=O)NCCCN1CCOCC1)C(=O)C1CCCCN21 (stereo not drawn)
684 | CC(C)NC(=O)c1ccc(-c2nc3cc(NS(=O)(=O)c4ccc(F)cc4)ccc3n2C)cc1
622 | O=C1OC2CC1N(C(=O)C1CC=CCC1)C2 (stereo not drawn)
783 | CCc1c(C(=O)O)nnn1-c1ccc(C)c(C)c1
807 | O=C(Nc1cccc(Oc2ccccn2)c1)c1c2c(nn1C1CCS(=O)(=O)C1)CCC2 (stereo not drawn)
617 | CCC(C)NC(=O)CCC(=O)N1CCc2c(c(C(=O)N3CCCC3)nn2C)C1 (stereo not drawn)
1320 | O=c1n(Cc2cccc(Cl)c2)nc2c(S(=O)(=O)N3CCOCC3)cccn12
1000 | Fc1ccc(-c2nc(-c3cccc(-c4ccn[nH]4)c3)no2)cc1
754 | CCC(C)NC(=O)c1ccc2c(c1)CCCN2S(C)(=O)=O (stereo not drawn)
578 | CCCN1CCN(C(=O)CN2CCN(Cc3ccccc3)C2=O)CC1
832 | O=C(Cn1c(=O)c2cc(C3CC3)nn2c2ncccc21)N1CCCc2ccccc21
600 | Cc1ccc(CNC(=O)C(=O)NCCO)cc1
958 | Cc1nn(C)c2nc(OCC(=O)N3CCCCCC3)cc(C(F)(F)F)c12
853 | Cc1cccc(N2CCN(C(=O)CN3CCN(Cc4ccccc4)C3=O)CC2)c1
604 | Cc1ccc(CSc2nccc3c2ccn3CC(=O)N2CCN(c3ccccn3)CC2)cc1
747 | CC(O)(c1ccccc1)C(c1ccccc1)C1CCCCN1 (stereo not drawn)
668 | CC(C)CCN1CCC(N2CCN(S(=O)(=O)c3ccccc3Cl)CC2)C1=O (stereo not drawn)
754 | Cc1cc(Nc2nc(C(=O)N3CCN(c4ccccn4)CC3)cc3occc23)ccc1Br
1180 | CC(C)Cc1ccc(S(=O)(=O)N2CCc3c(c(-c4nnc(-c5ccc(F)cc5)o4)nn3C)C2)cc1

RP-LC retention time [s] | SMILES
631 | O=C(Nc1nc(-c2ccccn2)cs1)c1ccc(N2CCOCC2)c([N+](=O)[O-])c1
602 | COCCNC(=O)C1CCCN(c2cnc3nc(C)c(C)nc3c2)C1 (stereo not drawn)
664 | COc1cccc(S(=O)(=O)N2CCC(Cc3nncn3C(C)C)C2)c1 (stereo not drawn)
676 | CCOc1ccc(NC(=O)NCCc2cn(C)c3ncccc23)cc1
1100 | CN(Cc1ccccc1)C(=O)C1CCN(S(=O)(=O)c2ccc(-c3noc(C4CC4)n3)cc2)CC1
562 | COc1cccc(CNC2CCN(c3ccc(C(=O)NC4CC4)cn3)C2)c1OC (stereo not drawn)
630 | COC(=O)c1ccccc1NC(=O)NCCn1c(C)nc2ccccc21
1010 | COc1ccc2c(c1)C1CC(C)(NC(=O)C1S(=O)(=O)c1ccc(C(C)C)cc1)O2 (stereo not drawn)
735 | CCNc1nc(C)cc(N2CCN(S(=O)(=O)c3ccc(Cl)cc3)CC2)n1
954 | O=C(NCc1ccco1)N1CCN(c2nc3ccccc3nc2C(F)(F)F)CC1
659 | Cn1c(=O)n(C)c2cc(N3CCCCC3)c(NC(=O)NCc3ccc(F)cc3)cc21
1010 | CCc1nn2c(CNC(=O)c3ccc(Br)cc3)c(-c3ccccc3)nc2s1
907 | O=C(Nc1ccnn1Cc1ccccc1)c1cc(=O)c2cc(Br)ccc2o1
750 | CCSc1nnc(-c2nn(C)c3c2CN(C(=O)c2ccc(F)cc2)CC3)n1C
1240 | Cc1cc(S(=O)(=O)N2CCCC2c2nc(-c3cccc(Cl)c3)no2)ccc1F (stereo not drawn)
904 | COc1cccc(NC(=O)Cn2nc3c(Oc4cc(C)cc(C)c4)nccn3c2=O)c1
1090 | O=c1c2sccc2n(Cc2nc(-c3ccc(C(F)(F)F)cc3)no2)c(=O)n1-c1cccc(F)c1
720 | Fc1cc(F)cc(CN2CCCN(c3ncccc3-c3nc(C4CC4)no3)CC2)c1
824 | O=C(NCc1ccc(Cl)cc1)C1CCN(c2ccc(SCc3ccccc3)nn2)CC1
749 | Cc1nc2cc(N3CC(C(=O)N4CCN(c5ccc(F)cc5)CC4)CC3=O)ccc2o1 (stereo not drawn)

SMILES | RP-LC retention time [s]
CN(C)C(=O)c1ccc2c(c1)nc(CN1CCN(C(=O)COc3ccc(Cl)cc3)CC1)n2C | 640
Cn1cnc(S(=O)(=O)N2[C@H]3CC[C@@H]2c2cnc(-c4ccccc4)nc2C3)c1 | 763
